Test systems include A549 NSCLC; ACHN renal; HOP-92 NSCLC; MALME-3M melanoma; MCF7 breast; SF-268 CNS; SNB-19 CNS; TK-10 renal; UO-31 renal; SF-539 CNS.
What all share (assay): inhibition of tumour cell growth, NCI panel, 48 h

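Test compounds were applied to cells in 96-well plates for 48 hours at 5 doses. TGI marks complete inhibition of growth.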 Bounds are passed on as bounds.

Take `CC(C)=CC1C(C(=O)Oc2ccccc2C(C)C)C1(C)C` (stereo not drawn): the TGI with A549 NSCLC was over 100 µM; in the assay with ACHN renal, 33 µM; in the assay with HOP-92 NSCLC, over 100 µM; in the assay with MALME-3M melanoma, 34.1 µM; with MCF7 breast, 38 µM; in the assay on SF-268 CNS it was over 100 µM. The TGI in the assay with SNB-19 CNS is over 100 µM; with TK-10 renal it was 96 µM; in the assay on UO-31 renal it was 34.6 µM.

Regarding `Cc1ccc(S(=O)(=O)N2CCC[C@@H]2C(=O)O[C@@H]2CCC3CC=CC32)cc1` (stereo partly drawn), the TGI is over 100 µM in the assay on A549 NSCLC; over 100 µM in the assay on ACHN renal; 44 µM with HOP-92 NSCLC; 90 µM in the assay with MALME-3M melanoma; over 100 µM in the assay with MCF7 breast; 75 µM in the assay on SF-268 CNS. In addition, the TGI in the assay on SF-539 CNS is over 100 µM; in the assay with SNB-19 CNS, over 100 µM; in the assay with TK-10 renal, over 100 µM; in the assay on UO-31 renal it was 41.5 µM.

Consider `CC[C@@]1(O)C[C@H](OC2CC(N(C)C)C(O)C(C)O2)c2c(cc3c(c2O)C(=O)c2c(O)ccc(O)c2C3=O)[C@H]1C(=O)OC` (stereo partly drawn), for which the TGI amounted to 1.36 µM in the assay with A549 NSCLC; 1.35 µM in the assay with HOP-92 NSCLC; 0.304 µM in the assay on MALME-3M melanoma; 0.996 µM in the assay on MCF7 breast; 0.68 µM in the assay on SF-268 CNS; 0.41 µM with SF-539 CNS. In addition, the values for the TGI in the assay with SNB-19 CNS and in the assay with UO-31 renal were 2.91 µM and 1 µM, respectively.

As to `Nc1nc(Cl)cc(OCC2(CO)CCCC2)n1`, the TGI with A549 NSCLC, with ACHN renal, with HOP-92 NSCLC, with MALME-3M melanoma, in the assay on MCF7 breast and in the assay with SF-268 CNS was over 100 µM each time. The TGI with SF-539 CNS, in the assay with SNB-19 CNS and in the assay on TK-10 renal was over 100 µM in each case.

Consider `CC(C)C(Nc1ncnc2nc[nH]c12)C(=O)O` (stereo not drawn), for which the TGI in the assay on A549 NSCLC, in the assay on ACHN renal, with HOP-92 NSCLC, with MALME-3M melanoma, in the assay on MCF7 breast and in the assay on SF-268 CNS was over 100 µM in each case. Further, the TGI with SNB-19 CNS, in the assay with TK-10 renal and with UO-31 renal was over 100 µM in each case.

Take `O[C@@H]1C[C@H](Cl)c2c(Cl)sc(Cl)c21`: the TGI in the assay with A549 NSCLC, in the assay on ACHN renal, in the assay on MALME-3M melanoma, in the assay on MCF7 breast, in the assay on SF-268 CNS and with SF-539 CNS was over 100 µM in each case. Also, the TGI with SNB-19 CNS, in the assay with TK-10 renal and with UO-31 renal was over 100 µM each time.

Turning to `CN(C)CCNC(=O)c1cccc2ccc(-c3ccc(Br)cc3)nc12`, the TGI came out at 4.29 µM in the assay on A549 NSCLC; 8.43 µM in the assay on HOP-92 NSCLC; 8.68 µM in the assay on MALME-3M melanoma; 13.8 µM with MCF7 breast; 19.1 µM with SF-268 CNS; 11.4 µM with SF-539 CNS. The TGI in the assay on SNB-19 CNS came to 16.7 µM; in the assay with UO-31 renal it was 3.99 µM.

Turning to `O=c1cc(-c2ccccc2)[nH]c2ncccc12`, the TGI was over 100 µM in the assay with A549 NSCLC; over 100 µM in the assay on ACHN renal; 7.54 µM in the assay with HOP-92 NSCLC; over 100 µM with MALME-3M melanoma; over 100 µM in the assay on MCF7 breast; over 100 µM in the assay with SF-268 CNS. Moreover, the TGI in the assay on SNB-19 CNS, in the assay with TK-10 renal and in the assay with UO-31 renal was over 100 µM throughout.

Consider `O=C(CN1CCCC1=O)CS(=O)(=O)c1ccccc1`, for which the TGI in the assay with A549 NSCLC, in the assay on ACHN renal, in the assay with MALME-3M melanoma, with MCF7 breast, in the assay with SF-268 CNS and in the assay with SF-539 CNS was over 100 µM each time. For the same compound, the TGI with SNB-19 CNS, with TK-10 renal and in the assay on UO-31 renal was over 100 µM each time.

For the compound `COC1OCC(O)C(NC(=O)N(C)N=O)C1O` (stereo not drawn), the TGI with A549 NSCLC, with HOP-92 NSCLC, in the assay with MALME-3M melanoma, with MCF7 breast, in the assay with SF-268 CNS and in the assay on SF-539 CNS was over 100 µM each time. The TGI in the assay on SNB-19 CNS and with UO-31 renal was over 100 µM in each case.

Consider `O=c1[nH]c2ccccc2c(O)c1Cc1ccccc1`, for which the TGI in the assay with A549 NSCLC, in the assay on ACHN renal, in the assay on HOP-92 NSCLC, in the assay with MALME-3M melanoma, in the assay with MCF7 breast and in the assay with SF-268 CNS was over 100 µM each time. The TGI with SF-539 CNS, in the assay on SNB-19 CNS and with TK-10 renal was over 100 µM throughout.

Regarding `O=C(c1ccccc1)N1CCN(C(=S)NC2CCCCC2)C1=S`, the TGI in the assay on A549 NSCLC came to 30.6 µM; in the assay on ACHN renal, 58 µM; with HOP-92 NSCLC it was 36.7 µM; with MALME-3M melanoma it was 32.1 µM; in the assay on MCF7 breast, 48.2 µM; in the assay with SF-268 CNS it was 42.5 µM. Moreover, the TGI in the assay with SF-539 CNS worked out at 27.7 µM; with TK-10 renal, 62 µM; in the assay on UO-31 renal, 30.5 µM.

In the case of `COc1cccc2c1NC(=O)Cc1c-2[nH]c2ccccc12`, the TGI in the assay on A549 NSCLC, with ACHN renal, in the assay on HOP-92 NSCLC, in the assay with MALME-3M melanoma, with MCF7 breast and in the assay with SF-268 CNS was over 100 µM in each case. Further, the TGI in the assay on SF-539 CNS, with TK-10 renal and in the assay on UO-31 renal was over 100 µM each time.

With `CN(C)C(=O)Oc1c(Br)cc(Br)cc1C(=O)OCc1ccccc1`, the TGI is over 100 µM with A549 NSCLC; 42.8 µM in the assay on HOP-92 NSCLC; 55.3 µM in the assay with MALME-3M melanoma; over 70.3 µM with MCF7 breast; over 100 µM in the assay on SF-268 CNS; 53.4 µM in the assay on SF-539 CNS. For the same compound, the TGI with SNB-19 CNS is over 100 µM; in the assay on UO-31 renal, 68.9 µM.
